Where two headings read alike, the source gives them in different places.
Experiments:
HeLa cell line = assay: Proliferation assay (crystal violet); details: Homo sapiens, 96 h, read-out: Biological Assay 2: Proliferation assay (HeLa cell line) median IC50
Description: Cultivated tumor cells (cells were ordered from ATCC, except HeLa-MaTu and HeLa-MaTu-ADR, which were ordered from EPO-GmbH, Berlin) were plated at a density of 1000 to 5000 cells/well, depending on the growth rate of the respective cell line, in a 96-well multititer plate in 200 μL of their respective growth medium supplemented 10% fetal calf serum. After 24 hours, the cells of one plate (zero-point plate) were stained with crystal violet (see below), while the medium of the other plates was replaced by fresh culture medium (200 μL), to which the test substances were added in various concentrations (0 μM, as well as in the range of 0.001-10 μM; the final concentration of the solvent dimethyl sulfoxide was 0.5%). The cells were incubated for 4 days in the presence of test substances. Cell proliferation was determined by staining the cells with crystal violet: the cells were fixed by adding 20 μL/measuring point of an 11% glutaric aldehyde solution for 15 minutes at room temperature. After three washing cycles of the fixed cells with water, the plates were dried at room temperature. The cells were stained by adding 100 μL/measuring point of a 0.1% crystal violet solution (pH 3.0). After three washing cycles of the stained cells with water, the plates were dried at room temperature. The dye was dissolved by adding 100 μl/measuring point of a 10% acetic acid solution. Absorbtion was determined by photometry at a wavelength of 595 nm. The change of cell number, in percent, was calculated by normalization of the measured values to the absorbtion values of the zero-point plate (=0%) and the absorbtion of the untreated (0 μm) cells (=100%). The IC50 values were determined by means of a 4 parameter fit.

[1] = target: catalytic domain of human Bub1 (amino acids 704-1085) (Homo sapiens (Human), UniProt O43683); assay: Bub1 kinase assay (TR-FRET); type: biochemical; details: read-out: Biological Assay 1: Bub1 kinase assay median IC50
Description: The stopped reaction mixture was further incubated 1 h at 22° C. in order to allow the formation of complexes between peptides and detection reagents. Subsequently, the amount of product was evaluated by measurement of the resonance energy transfer from the Eu-chelate-antibody complex recognizing the Phosphoserine residue to the streptavidin-XL665 bound to the biotin moiety of the peptide. […] IC50 values were calculated by fitting the normalized inhibition data to a 4-parameter logistic equation (Minimum, Maximum, IC50, Hill; Y=Max+(Min−Max)/(1+(X/IC50)Hill)).

[2] = TR-FRET, 10 μM ATP, 1 μM peptide substrate

Structure (SMILES) | IC50 (HeLa cell line) [nM] | IC50 [1, 2] [nM] | IC50 [1] [nM]
CCOc1cc(F)c(Cn2cc(N(C)C)c(-c3ncc(OC)c(Nc4ccncc4)n3)n2)c(F)c1 [Example 2-2-10, 2-[4-(dimethylamino)-1-(4-ethoxy-2,6-difluorobenzyl)-1H-pyrazol-3-yl]-5-methoxy-N-(pyridin-4-yl)pyrimidin-4-amine] | > 10000 | 250 | 
CCOc1cc(F)c(Cn2nc(-c3ncc(OC)c(Nc4ccncc4)n3)c(Cl)c2C)c(F)c1 [Example 2-2-3, 2-[4-chloro-1-(4-ethoxy-2,6-difluorobenzyl)-5-methyl-1H-pyrazol-3-yl]-5-methoxy-N-(pyridin-4-yl)pyrimidin-4-amine] | 3800 | 10 | 
CCOc1cc(F)c(Cn2nc(-c3ncc(OC)c(Nc4ccncc4)n3)c(C)c2C#N)c(F)c1 [Example 2-2-12, 1-(4-ethoxy-2,6-difluorobenzyl)-3-[5-methoxy-4-(pyridin-4-ylamino)pyrimidin-2-yl]-4-methyl-1H-pyrazole-5-carbonitrile] | > 10000 | 100 | 
CCOc1cc(F)c(Cn2nc(-c3nccc(Nc4ccncc4)n3)c(Cl)c2C2CC2)c(F)c1 [Example 2-2-1, 2-[4-chloro-5-cyclopropyl-1-(4-ethoxy-2,6-difluorobenzyl)-1H-pyrazol-3-yl]-N-(pyridin-4-yl)pyrimidin-4-amine] | 8800 |  | 5.6
CCOc1cc(F)c(Cn2cc(Cl)c(-c3ncc(OC)c(Nc4ccncc4)n3)n2)c(F)c1 [Example 2-2-5, 2-[4-chloro-1-(4-ethoxy-2,6-difluorobenzyl)-1H-pyrazol-3-yl]-5-methoxy-N-(pyridin-4-yl)pyrimidin-4-amine] | 6800 | 33 | 
CCOc1cc(F)c(Cn2nc(-c3nccc(Nc4ccncc4C(N)=O)n3)c(Cl)c2C2CC2)c(F)c1 [Example 2-1-2, 4-({2-[4-chloro-5-cyclopropyl-1-(4-ethoxy-2,6-difluorobenzyl)-1H-pyrazol-3-yl]pyrimidin-4-yl}amino)nicotinamide] | 8600 | 8.1 | 
CCOc1cc(F)c(Cn2nc(-c3ncc(OC)c(Nc4ccncc4C(=O)NC)n3)c(F)c2C)c(F)c1 [Example 2-4-4, 4-({2-[1-(4-ethoxy-2,6-difluorobenzyl)-4-fluoro-5-methyl-1H-pyrazol-3-yl]-5-methoxypyrimidin-4-yl}amino)-N-methylnicotinamide] | > 10000 | 10 | 
CCOc1cc(F)c(Cn2nc(-c3nccc(Nc4ccncc4C(=O)O)n3)c(Cl)c2C2CC2)c(F)c1 [Example 2-3-1, 4-({2-[4-chloro-5-cyclopropyl-1-(4-ethoxy-2,6-difluorobenzyl)-1H-pyrazol-3-yl]pyrimidin-4-yl}amino)nicotinic acid] |  |  | 11
CCOc1cc(F)c(Cn2nc(-c3ncc(OC)c(Nc4ccncc4)n3)c(Br)c2C)c(F)c1 [Example 2-2-4, 2-[4-bromo-1-(4-ethoxy-2,6-difluorobenzyl)-5-methyl-1H-pyrazol-3-yl]-5-methoxy-N-(pyridin-4-yl)pyrimidin-4-amine] | 3300 | 24 | 
CCOc1cc(F)c(Cn2nc(-c3ncc(OC)c(Nc4ccncc4)n3)c(C)c2Br)c(F)c1 [Example 2-2-11, 2-[5-bromo-1-(4-ethoxy-2,6-difluorobenzyl)-4-methyl-1H-pyrazol-3-yl]-5-methoxy-N-(pyridin-4-yl)pyrimidin-4-amine] | 1300 | 13 | 
CCOc1cc(F)c(Cn2nc(-c3ncc(OC)c(Nc4ccncc4)n3)c(F)c2C)c(F)c1 [Example 2-2-6, 2-[1-(4-ethoxy-2,6-difluorobenzyl)-4-fluoro-5-methyl-1H-pyrazol-3-yl]-5-methoxy-N-(pyridin-4-yl)pyrimidin-4-amine] | 4500 | 41 | 
CCOc1cc(F)c(Cn2nc(-c3ncc(OC)c(Nc4ccncc4C(N)=O)n3)c(F)c2C)c(F)c1 [Example 2-4-5, 4-({2-[1-(4-ethoxy-2,6-difluorobenzyl)-4-fluoro-5-methyl-1H-pyrazol-3-yl]-5-methoxypyrimidin-4-yl}amino)pyridine-3-carboxamide] | > 10000 | 11 | 
CCOc1cc(F)c(Cn2nc(-c3ncc(OC)c(Nc4ccncc4)n3)c(C#N)c2C)c(F)c1 [Example 2-2-8, 1-(4-ethoxy-2,6-difluorobenzyl)-3-[5-methoxy-4-(pyridin-4-ylamino)pyrimidin-2-yl]-5-methyl-1H-pyrazole-4-carbonitrile] |  | 3200 | 
CCOC(=O)c1cnccc1Nc1ccnc(-c2nn(Cc3c(F)cc(OCC)cc3F)c(C3CC3)c2Cl)n1 [Example 2-2-2, ethyl 4-({2-[4-chloro-5-cyclopropyl-1-(4-ethoxy-2,6-difluorobenzyl)-1H-pyrazol-3-yl]pyrimidin-4-yl}amino)nicotinate] | 9200 | 37 | 
CCOc1cc(F)c(Cn2cc(Cl)c(-c3ncc(OC)c(Nc4ccncc4C(N)=O)n3)n2)c(F)c1 [Example 2-4-3, 4-({2-[4-chloro-1-(4-ethoxy-2,6-difluorobenzyl)-1H-pyrazol-3-yl]-5-methoxypyrimidin-4-yl}amino)nicotinamide] | > 10000 | 7.4 | 
CCOC(=O)c1cnccc1Nc1nc(-c2nn(Cc3c(F)cc(OCC)cc3F)c(C)c2F)ncc1OC [Example 2-2-9, ethyl 4-({2-[1-(4-ethoxy-2,6-difluorobenzyl)-4-fluoro-5-methyl-1H-pyrazol-3-yl]-5-methoxypyrimidin-4-yl}amino)nicotinate] |  | 40 | 
CCOc1cc(F)c(Cn2cc(Cl)c(-c3ncc(OC)c(Nc4ccncc4C(=O)NC)n3)n2)c(F)c1 [Example 2-4-2, 4-({2-[4-chloro-1-(4-ethoxy-2,6-difluorobenzyl)-1H-pyrazol-3-yl]-5-methoxypyrimidin-4-yl}amino)-N-methylnicotinamide] | > 10000 | 13 | 
CCOc1cc(F)c(Cn2nc(-c3nccc(Nc4ccncc4C(=O)NC)n3)c(Cl)c2C2CC2)c(F)c1 [Example 2-1-1, 4-({2-[4-chloro-5-cyclopropyl-1-(4-ethoxy-2,6-difluorobenzyl)-1H-pyrazol-3-yl]pyrimidin-4-yl}amino)-N-methylnicotinamide] | > 10000 | 4.7 | 
CCOc1cc(F)c(Cn2nc(-c3nccc(Nc4ccncc4C(=O)NCCO)n3)c(Cl)c2C2CC2)c(F)c1 [Example 2-4-1, 4-({2-[4-chloro-5-cyclopropyl-1-(4-ethoxy-2,6-difluorobenzyl)-1H-pyrazol-3-yl]pyrimidin-4-yl}amino)-N-(2-hydroxyethyl)nicotinamide] | > 10000 |  | 54
